Data as given in ChEMBL document CHEMBL1681651, “A broad spectrum anticancer nucleoside with selective toxicity against human colon cells in vitro” (2011).

Key:
Assay type in all cases: functional
[1] = Growth inhibition of human […] cells assessed as cell growth at 10 uM after 48 hrs by SRB assay; details: read-out: Activity
Malme-3M = assay: Growth inhibition of human MALME-3M cells assessed as cell growth at 1 mM after 48 hrs by SRB assay; details: read-out: Activity
UACC-62 [2] = assay: Growth inhibition of human UACC62 cells assessed as cell growth at 10 uM after 48 hrs by SRB assay; details: UACC-62, 48 h, read-out: Activity
UACC-257 = assay: Growth inhibition of human UACC257 cells assessed as cell growth at 1 mM after 48 hrs by SRB assay; details: UACC-257, 48 h, read-out: Activity
DU-145 = assay: Growth inhibition of human DU145 cells assessed as cell growth at 0.1 uM after 48 hrs by SRB assay; details: DU-145, 48 h, read-out: Activity
ACHN [3] = assay: Growth inhibition of human ACHN cells assessed as cell growth at 10 uM after 48 hrs by SRB assay; details: read-out: Activity
HT-29 = assay: Growth inhibition of human HT-29 cells assessed as cell growth at 1 mM after 48 hrs by SRB assay; details: HT-29, 48 h, read-out: Activity
OVCAR-8 [4] = assay: Growth inhibition of human OVCAR8 cells after 48 hrs by […] growth inhibition assay; details: OVCAR-8, 48 h
TK-10 [5] = assay: Growth inhibition of human TK10 cells after 48 hrs by […] growth inhibition assay; details: TK-10, 48 h
HCT-15 = assay: Growth inhibition of human HCT15 cells assessed as cell growth at 100 uM after 48 hrs by SRB assay; details: HCT-15, 48 h, read-out: Activity
IGROV-1 = assay: Growth inhibition of human IGROV1 cells assessed as cell growth at 10 uM after 48 hrs by SRB assay; details: IGROV-1, 48 h, read-out: Activity
RXF 393 = assay: Growth inhibition of human RXF393 cells after 48 hrs by […] growth inhibition assay; details: RXF 393, 48 h
SK-MEL-2 [6] = assay: Growth inhibition of human SK-MEL-2 cells after 48 hrs by […] growth inhibition assay; details: SK-MEL-2, 48 h
SNB-75 = assay: Growth inhibition of human SNB75 cells assessed as cell growth at 0.1 uM after 48 hrs by SRB assay; details: SNB-75, 48 h, read-out: Activity
SK-MEL-2 [7] = assay: Growth inhibition of human SK-MEL-2 cells assessed as cell growth at 0.1 uM after 48 hrs by SRB assay; details: SK-MEL-2, 48 h, read-out: Activity
NCI-H226 = assay: Growth inhibition of human NCI-H226 cells assessed as cell growth at 0.1 uM after 48 hrs by SRB assay; details: NCI-H226, 48 h, read-out: Activity
MDA-MB-231 = assay: Growth inhibition of human MDA-MB-231 cells after 48 hrs by […] growth inhibition assay; details: MDA-MB-231, 48 h
NCI-H322M [8] = assay: Growth inhibition of human NCI-H322M cells assessed as cell growth at 100 uM after 48 hrs by SRB assay; details: read-out: Activity
OVCAR-5 = assay: Growth inhibition of human OVCAR5 cells assessed as cell growth at 1 uM after 48 hrs by SRB assay; details: OVCAR-5, 48 h, read-out: Activity
TK-10 [9] = assay: Growth inhibition of human TK10 cells assessed as cell growth at 0.1 uM after 48 hrs by SRB assay; details: TK-10, 48 h, read-out: Activity
HCT-116 = assay: Growth inhibition of human HCT116 cells assessed as cell growth at 1 mM after 48 hrs by SRB assay; details: HCT-116, 48 h, read-out: Activity
UO-31 = assay: Growth inhibition of human UO31 cells assessed as cell growth at 10 uM after 48 hrs by SRB assay; details: UO-31, 48 h, read-out: Activity
SK-MEL-2 [10] = assay: Growth inhibition of human SK-MEL-2 cells assessed as cell growth at 1 mM after 48 hrs by SRB assay; details: SK-MEL-2, 48 h, read-out: Activity
K562 = assay: Growth inhibition of human K562 cells assessed as cell growth at 10 uM after 48 hrs by SRB assay; details: K562, 48 h, read-out: Activity
UACC-62 [11] = assay: Growth inhibition of human UACC62 cells assessed as cell growth at 1 uM after 48 hrs by SRB assay; details: UACC-62, 48 h, read-out: Activity
NCI-H322M [12] = assay: Growth inhibition of human NCI-H322M cells assessed as cell growth at 1 mM after 48 hrs by SRB assay; details: read-out: Activity
SN12C = assay: Growth inhibition of human SN12C cells after 48 hrs by […] growth inhibition assay
NCI-H522 = assay: Growth inhibition of human NCI-H522 cells assessed as cell growth at 1 mM after 48 hrs by SRB assay; details: NCI-H522, 48 h, read-out: Activity
ACHN [13] = assay: Growth inhibition of human ACHN cells assessed as cell growth at 0.1 uM after 48 hrs by SRB assay; details: read-out: Activity
CAKI-1 = assay: Growth inhibition of human Caki1 cells assessed as cell growth at 100 uM after 48 hrs by SRB assay; details: CAKI-1, 48 h, read-out: Activity
SF-295 = assay: Growth inhibition of human SF295 cells assessed as cell growth at 1 mM after 48 hrs by SRB assay; details: SF-295, 48 h, read-out: Activity
OVCAR-8 [14] = assay: Growth inhibition of human OVCAR8 cells assessed as cell growth at 100 uM after 48 hrs by SRB assay; details: OVCAR-8, 48 h, read-out: Activity
SK-MEL-28 = assay: Growth inhibition of human SK-MEL-28 cells assessed as cell growth at 10 uM after 48 hrs by SRB assay; details: SK-MEL-28, 48 h, read-out: Activity
[15] = read-out: LC50 (the source's name)
[16] = read-out: pLC50 (the source's name) (converted)

CNC(=O)NC[C@H]1O[C@@H](n2cnc3c(NC(=O)Nc4ccccc4)ncnc32)[C@H](O[Si](C)(C)C(C)(C)C)[C@@H]1CC(=O)N(C)OC
growth at 10 µM [1]: 69% | growth at 1000 µM (Malme-3M): 23% | growth at 10 µM (UACC-62 [2]): 96% | growth at 1000 µM (UACC-257): 22% | growth at 0.1 µM (DU-145): 107% | growth at 10 µM (ACHN [3]): 95% | growth at 1000 µM (HT-29): 17% | GI50 (OVCAR-8 [4]; read-out: GI50): 9.02 µM | CC50 (OVCAR-8 [4]; [15]): > 100 µM | TGI (OVCAR-8 [4]; read-out: TGI): > 100 µM | GI50 (OVCAR-8 [4]; read-out: pGI50 (converted)): 9.12 µM | CC50 (OVCAR-8 [4]; [16]): > 100 µM | TGI (OVCAR-8 [4]; read-out: pTGI (converted)): > 100 µM | GI50 (TK-10 [5]; read-out: GI50): 20.6 µM | CC50 (TK-10 [5]; [15]): > 100 µM | TGI (TK-10 [5]; read-out: TGI): > 100 µM | GI50 (TK-10 [5]; read-out: pGI50 (converted)): 20.4 µM | CC50 (TK-10 [5]; [16]): > 100 µM | TGI (TK-10 [5]; read-out: pTGI (converted)): > 100 µM | growth at 100 µM (HCT-15): 40% | growth at 10 µM (IGROV-1): 82% | GI50 (RXF 393; read-out: GI50): 9.74 µM | CC50 (RXF 393; [15]): > 100 µM | TGI (RXF 393; read-out: TGI): 38 µM | GI50 (RXF 393; read-out: pGI50 (converted)): 9.77 µM | CC50 (RXF 393; [16]): > 100 µM | TGI (RXF 393; read-out: pTGI (converted)): 38 µM | GI50 (SK-MEL-2 [6]; read-out: GI50): 14.9 µM | CC50 (SK-MEL-2 [6]; [15]): > 100 µM | TGI (SK-MEL-2 [6]; read-out: TGI): 83.1 µM | GI50 (SK-MEL-2 [6]; read-out: pGI50 (converted)): 14.8 µM | CC50 (SK-MEL-2 [6]; [16]): > 100 µM | TGI (SK-MEL-2 [6]; read-out: pTGI (converted)): 83.2 µM | growth at 0.1 µM (SNB-75): 94% | growth at 0.1 µM (SK-MEL-2 [7]): 85% | growth at 0.1 µM (NCI-H226): 103% | GI50 (MDA-MB-231; read-out: GI50): 12.3 µM | CC50 (MDA-MB-231; [15]): > 100 µM | TGI (MDA-MB-231; read-out: TGI): > 100 µM | GI50 (MDA-MB-231; read-out: pGI50 (converted)): 12.3 µM | CC50 (MDA-MB-231; [16]): > 100 µM | TGI (MDA-MB-231; read-out: pTGI (converted)): > 100 µM | growth at 100 µM (NCI-H322M [8]): 90% | growth at 1 µM (OVCAR-5): 98% | growth at 0.1 µM (TK-10 [9]): 99% | growth at 1000 µM (HCT-116): 6% | growth at 10 µM (UO-31): 82% | growth at 1000 µM (SK-MEL-2 [10]): -5% | growth at 10 µM (K562): 82% | growth at 1 µM (UACC-62 [11]): 107% | growth at 1000 µM (NCI-H322M [12]): 73% | GI50 (SN12C; read-out: GI50): 85.3 µM | CC50 (SN12C; [15]): > 100 µM | TGI (SN12C; read-out: TGI): > 100 µM | GI50 (SN12C; read-out: pGI50 (converted)): 85.1 µM | CC50 (SN12C; [16]): > 100 µM | TGI (SN12C; read-out: pTGI (converted)): > 100 µM | growth at 1000 µM (NCI-H522): 31% | growth at 0.1 µM (ACHN [13]): 107% | growth at 100 µM (CAKI-1): 57% | growth at 1000 µM (SF-295): 20% | growth at 100 µM (OVCAR-8 [14]): 48% | growth at 10 µM (SK-MEL-28): 101%
